Patent US11992497B2 (priority 2021, dated 2024)

What was measured:
Test in all cases: UGT reaction phenotyping, recombinant Supersomes
UGT1A1 = molecular target: T1, UGT1A1 (Homo sapiens, UniProt P22309); details: recombinant enzyme, pH 7.4
T1 sequence (P22309 26-533): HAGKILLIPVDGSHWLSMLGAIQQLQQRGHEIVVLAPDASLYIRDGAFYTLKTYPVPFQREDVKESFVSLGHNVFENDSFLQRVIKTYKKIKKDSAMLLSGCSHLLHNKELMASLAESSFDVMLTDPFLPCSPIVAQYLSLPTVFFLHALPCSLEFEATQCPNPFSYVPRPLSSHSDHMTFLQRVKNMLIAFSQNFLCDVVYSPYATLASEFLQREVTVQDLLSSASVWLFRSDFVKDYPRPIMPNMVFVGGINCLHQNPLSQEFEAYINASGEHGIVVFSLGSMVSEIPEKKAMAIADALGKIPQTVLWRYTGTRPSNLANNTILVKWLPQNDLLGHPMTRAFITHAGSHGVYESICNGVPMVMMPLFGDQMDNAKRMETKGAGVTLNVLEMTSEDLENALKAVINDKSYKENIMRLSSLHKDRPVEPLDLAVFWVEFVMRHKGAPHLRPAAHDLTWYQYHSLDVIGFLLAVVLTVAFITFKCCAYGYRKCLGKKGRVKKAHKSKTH
Experimental: (§1) Experimental Summary: UGT Reaction Phenotyping (7 Isoforms).
(§2) Experimental Procedure: cDNA expressed human UGT enzyme preparations (Supersomes) supplied by BD Biosciences were obtained and stored at −80° C. prior to use. The specific isoforms were chosen by the performing laboratory based on published guidelines. They are considered the clinically relevant of the UGT isoforms (E. Kasteel et al. Human variability in isoform-specific UDP-glucuronosyltransferases: markers of acute and chronic exposure, polymorphisms and uncertainty factors. Arch Toxicol. 2020; 94(8): 2637-2661)
(§3) Supersomes in 0.1 M Tris buffer pH 7.4, alamethicin (44.6 μg/mL) and test compound (final concentration of 5 μM; final DMSO concentration ≤0.1%) were pre-incubated at 37° C. prior to the addition of UDGPA (final concentration 2 mM) to initiate the reaction. Incubations were also performed using control Supersomes (no UGT enzymes present) to reveal any non-enzymatic degradation. Compounds known to be metabolized specifically by each UGT isoform were used as control compounds (7-hydroxy-4-trifluoromethylcoumarin, all but UGT1A4, or trifluoperazine for UGT1A4).
(§4) CBG or Compound 1 were incubated in duplicate for 0, 10, 20, 40 and 60 min with each isoform. The reactions were stopped by the addition of methanol containing an analytical internal standard at the time points specified in the table above. Stopped reactions were kept on ice for at least ten minutes and the samples were centrifuged to remove precipitated protein. Supernatants were analyzed by LC-MS/MS methodology developed by the performing laboratory to quantitate the parent remaining.
(§5) The change in CBG concentration were used to calculate the Half life (t1/2 in min) and the intrinsic clearance ([…]) as shown in the following table (S. C, Khojasteh et.al., Drug Metabolism and Pharmacokinetics Quick Guide, Springer, NY, 2011), Intrinsic Clearance (CIint) is a measure of the ability of hepatocytes to eliminate drug irrespective other factors such as blood flow or protein binding. The calculations were the same as those used in Example 3A.

UGT1A9 = molecular target: T2, UGT1A9 (Homo sapiens, UniProt O60656); details: pH 7.4; for half-life at 1 µM / microsomal CLint at 1 µM: recombinant enzyme
T2 sequence (O60656 26-530): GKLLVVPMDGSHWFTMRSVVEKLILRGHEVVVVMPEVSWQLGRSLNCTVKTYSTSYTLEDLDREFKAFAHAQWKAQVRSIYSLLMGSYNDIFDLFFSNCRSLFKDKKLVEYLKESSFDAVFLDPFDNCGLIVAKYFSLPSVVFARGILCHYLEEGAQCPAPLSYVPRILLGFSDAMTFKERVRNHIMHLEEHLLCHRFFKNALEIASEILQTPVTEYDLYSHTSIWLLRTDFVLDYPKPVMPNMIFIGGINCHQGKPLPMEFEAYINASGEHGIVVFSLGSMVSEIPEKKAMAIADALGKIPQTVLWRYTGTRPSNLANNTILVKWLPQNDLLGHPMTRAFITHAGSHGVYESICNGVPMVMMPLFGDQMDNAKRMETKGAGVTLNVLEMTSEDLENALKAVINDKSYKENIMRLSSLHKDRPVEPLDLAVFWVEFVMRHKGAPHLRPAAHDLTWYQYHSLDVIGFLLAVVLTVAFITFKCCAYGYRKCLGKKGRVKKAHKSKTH
Experimental: as §1, §2, §3, §4, §5

UGT2B7 = molecular target: T3, UGT2B7 (Homo sapiens, UniProt P16662); details: for half-life at 1 µM / microsomal CLint at 1 µM: human, recombinant enzyme, pH 7.4
T3 sequence (P16662 24-529): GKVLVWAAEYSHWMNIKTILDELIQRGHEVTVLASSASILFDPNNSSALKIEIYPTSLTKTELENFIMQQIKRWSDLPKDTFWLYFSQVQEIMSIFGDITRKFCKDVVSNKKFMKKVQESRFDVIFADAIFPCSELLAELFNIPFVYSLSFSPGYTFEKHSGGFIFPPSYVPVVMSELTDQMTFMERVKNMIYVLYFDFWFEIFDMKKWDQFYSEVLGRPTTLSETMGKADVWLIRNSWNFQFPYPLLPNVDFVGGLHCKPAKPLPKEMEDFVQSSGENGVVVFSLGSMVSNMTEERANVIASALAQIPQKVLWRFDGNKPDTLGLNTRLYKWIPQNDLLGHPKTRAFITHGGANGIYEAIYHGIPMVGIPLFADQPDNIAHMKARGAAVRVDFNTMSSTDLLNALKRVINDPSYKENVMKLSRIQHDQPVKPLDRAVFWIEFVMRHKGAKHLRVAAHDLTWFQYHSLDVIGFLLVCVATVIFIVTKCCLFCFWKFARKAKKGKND
Experimental: as §1, §2, §3, §4, §5

UGT1A3 = molecular target: T4, UGT1A3 (Homo sapiens, UniProt P35503); details: recombinant enzyme, pH 7.4
T4 sequence (P35503 29-534): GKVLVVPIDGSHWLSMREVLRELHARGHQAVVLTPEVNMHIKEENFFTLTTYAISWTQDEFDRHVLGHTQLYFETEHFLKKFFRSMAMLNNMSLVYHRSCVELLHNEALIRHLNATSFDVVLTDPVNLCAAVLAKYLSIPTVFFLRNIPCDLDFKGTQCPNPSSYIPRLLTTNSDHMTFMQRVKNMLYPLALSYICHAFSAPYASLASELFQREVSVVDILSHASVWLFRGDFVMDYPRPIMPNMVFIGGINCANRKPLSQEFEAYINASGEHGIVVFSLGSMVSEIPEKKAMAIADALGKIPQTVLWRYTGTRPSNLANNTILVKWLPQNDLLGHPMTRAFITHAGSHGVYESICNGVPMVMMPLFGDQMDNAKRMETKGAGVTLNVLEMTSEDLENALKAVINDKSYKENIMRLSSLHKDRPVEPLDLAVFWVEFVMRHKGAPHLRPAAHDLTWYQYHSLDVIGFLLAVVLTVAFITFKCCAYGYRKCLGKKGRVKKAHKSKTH
Experimental: as §1, §2, §3, §4, §5

| SMILES | half-life at 1 µM (UGT1A1) [min] | microsomal CLint at 1 µM (UGT1A1) [µL/min/mg] | half-life at 1 µM (UGT1A9) [min] | microsomal CLint at 1 µM (UGT1A9) [µL/min/mg] | half-life at 1 µM (UGT2B7) [min] | microsomal CLint at 1 µM (UGT2B7) [µL/min/mg] | half-life at 1 µM (UGT1A3) [min] | microsomal CLint at 1 µM (UGT1A3) [µL/min/mg] | share of UGT1A9 in the activity with CBG for all the UGTs combined (UGT1A9; 5 µM) [%] | activity of UGT2B7 relative to UGT1A9 (UGT2B7; CBG as substrate) |
| --- | --- | --- | --- | --- | --- | --- | --- | --- | --- | --- |
| CCCCCc1cc(O)c(C/C=C(\C)CCC=C(C)C)c(OC)c1 [Compound 1, (E)-2-(3,7-dimethylocta-2,6-dien-1-yl)-3-methoxy-5-pentylphenol] | 103 | 13.5 | 14 | 99.1 | 24.8 | 55.9 | 108 | 12.8 |  |  |
| CCCCCc1cc(O)c(C/C=C(\C)CCC=C(C)C)c(O)c1 [CBG, cannabigerol] | 77.1 | 18 | 1.92 | 721 | 17.9 | 77.5 | 44.1 | 31.4 | ~80 | approximately 1/10 |
| O=c1cc(C(F)(F)F)c2ccc(O)cc2o1 [7-OH4trifluoromethylcoumarin, 7-hydroxy-4-trifluoromethylcoumarin] | 33.1 | 41.8 | 3.04 | 456 | 50.4 | 27.5 | 51.8 | 26.8 |  |  |
